Assay results as given in patent US7138361B2, “Herbicidal heterocycles” (E. I. du Pont de Nemours and Company, priority 2000, dated 2006).

Experiments:
Type in all cases: in vivo
Sunflower [1] = experiment: Test C preemergence; details: Rate 500 g/ha, visual evaluation after 12 to 14 days
[2] = tested on: Surinam grass (Brachiaria decumbens); experiment: Test C preemergence
Summary of the method: (§1)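 Pre- and postemergence treatments used a non-phytotoxic solvent/surfactant formulation; post-treated plants measured 2 to 18 cm. Greenhouse hold 12–14 d; % control estimated visually relative to controls.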

[3] = tested on: morningglory (Ipomoea hederacea); experiment: Test C preemergence
Summary of the method: as §1

[4] = tested on: pigweed (Amaranthus retroflexus); experiment: Test C preemergence
Summary of the method: as §1

[5] = tested on: yellow nutsedge (Cyperus esculentus); experiment: Test C preemergence
Summary of the method: as §1

[6] = tested on: bermudagrass (Cynodon dactylon); experiment: Test C preemergence
Summary of the method: as §1

[7] = tested on: cocklebur (Xanthium strumarium); experiment: Test C preemergence
Summary of the method: as §1

corn (Zea mays) = experiment: Test C preemergence
Summary of the method: as §1

[8] = tested on: woolly cupgrass (Eriochloa villosa); experiment: Test C preemergence
Summary of the method: as §1

[9] = tested on: goosegrass (Eleusine indica); experiment: Test C preemergence
Summary of the method: as §1

[10] = tested on: crabgrass (Digitaria sanguinalis); experiment: Test C preemergence
Summary of the method: as §1

[11] = tested on: lambsquarters (Chenopodium album); experiment: Test C preemergence
Summary of the method: as §1

[12] = tested on: johnsongrass (Sorghum halepense); experiment: Test C preemergence
Summary of the method: as §1

soybean (Glycine max) = experiment: Test C preemergence
Summary of the method: as §1

Nightshade = experiment: Test C preemergence
kochia (Kochia scoparia) = experiment: Test C preemergence
Summary of the method: as §1

[13] = tested on: velvetleaf (Abutilon theophrasti); experiment: Test C preemergence
Summary of the method: as §1

[14] = tested on: giant foxtail (Setaria faberii); experiment: Test C preemergence
Summary of the method: as §1

Sunflower [15] = experiment: Test C preemergence; details: Rate 125 g/ha; scale 0 to 100, 0 no effect, 100 complete control
[16] = tested on: barnyardgrass (Echinochloa crus-galli); experiment: Test C flooded paddy test; details: for Barnyardgrass plant response rating: Flooded Paddy, scale 0 to 100, 0 no effect, 100 complete control; for Plant response rating, Barnyardgrass: flooded paddy test, scale 0 to 100 (0 no effect, 100 complete control)
Summary of the method: (§2)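 Ratings come from visual comparison with control plants after 12 to 14 days in the greenhouse. Each species was at the 2-leaf stage when the flooded paddy was treated. Scores run from 0, meaning no effect, to 100, meaning complete control.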

[17] = tested on: duck salad (Heteranthera limosa); experiment: Test C flooded paddy test; details: for Ducksalad plant response rating: Flooded Paddy, scale 0 to 100, 0 no effect, 100 complete control; for Plant response rating, Ducksalad: flooded paddy test, scale 0 to 100 (0 no effect, 100 complete control)
Summary of the method: as §2

[18] = tested on: smallflower flatsedge (Cyperus difformis); experiment: Test C flooded paddy test; details: for Flatsedge plant response rating: Flooded Paddy, scale 0 to 100, 0 no effect, 100 complete control; for Plant response rating, Flatsedge: flooded paddy test, scale 0 to 100 (0 no effect, 100 complete control)
Summary of the method: as §2

[19] = Rate 125 g/ha, scale 0 to 100, 0 no effect, 100 complete control
[20] = preemergence, Rate 62 g/ha, scale 0 to 100
[21] = preemergence, Rate 500 g/ha, visual evaluation after 12 to 14 days
[22] = preemergence, Rate 250 g/ha, scale 0 to 100, 0 no effect, 100 complete control

SMILES: CCC(C)Oc1cccc(N2CCC(n3ccc(C(C)(C)C)n3)C2=O)c1 (stereo not drawn) [Compound 127]
- Plant response rating (0 to 100), Sunflower (Sunflower [1]): 0
- Plant response rating, Surinam grass [2, 19]: 0
- Plant response rating, Surinam grass [2, 20]: 0
- Plant response rating (0 to 100), Surinam grass [2, 21]: 100
- Plant response rating, Surinam grass [2, 22]: 20
- Plant response rating, Morningglory [3, 19]: 0
- Plant response rating, Morningglory [3, 20]: 0
- Plant response rating (0 to 100), Morningglory [3, 21]: 20
- Plant response rating, Morningglory [3, 22]: 0
- Plant response rating, Pigweed [4, 19]: 0
- Plant response rating, Pigweed [4, 20]: 0
- Plant response rating (0 to 100), Pigweed [4, 21]: 0
- Plant response rating, Pigweed [4, 22]: 0
- Plant response rating, Nutsedge [5, 19]: 0
- Plant response rating, Nutsedge [5, 20]: 0
- Plant response rating (0 to 100), Nutsedge [5, 21]: 0
- Plant response rating, Nutsedge [5, 22]: 0
- Plant response rating, Bermudagrass [6, 19]: 100
- Plant response rating, Bermudagrass [6, 20]: 90
- Plant response rating (0 to 100 where 0 is no effect and 100 is complete control), Bermudagrass [6, 21]: 100
- Plant response rating, Bermudagrass [6, 22]: 100
- Plant response rating, Cocklebur [7, 19]: 0
- Plant response rating, Cocklebur [7, 20]: 0
- Plant response rating (0 to 100), Cocklebur [7, 21]: 20
- Plant response rating, Cocklebur [7, 22]: 0
- Plant response rating, Corn (corn (Zea mays); [19]): 0
- Plant response rating, Corn (corn (Zea mays); [20]): 0
- Plant response rating (0 to 100), Corn (corn (Zea mays); [21]): 30
- Plant response rating, Corn (corn (Zea mays); [22]): 30
- Plant response rating, Cupgrass, Woolly [8, 19]: 50
- Plant response rating, Cupgrass, Woolly [8, 20]: 0
- Plant response rating (0 to 100), Cupgrass, Woolly [8, 21]: 100
- Plant response rating, Cupgrass, Woolly [8, 22]: 90
- Plant response rating, Goosegrass [9, 19]: 30
- Plant response rating, Goosegrass [9, 20]: 10
- Plant response rating (0 to 100), Goosegrass [9, 21]: 100
- Plant response rating, Goosegrass [9, 22]: 100
- Plant response rating, Crabgrass [10, 19]: 70
- Plant response rating, Crabgrass [10, 20]: 50
- Plant response rating (0 to 100), Crabgrass [10, 21]: 100
- Plant response rating, Crabgrass [10, 22]: 100
- Plant response rating, Lambsquarters [11, 19]: 80
- Plant response rating, Lambsquarters [11, 20]: 20
- Plant response rating (0 to 100), Lambsquarters [11, 21]: 100
- Plant response rating, Lambsquarters [11, 22]: 100
- Plant response rating, Johnsongrass [12, 19]: 0
- Plant response rating, Johnsongrass [12, 20]: 0
- Plant response rating (0 to 100), Johnsongrass [12, 21]: 0
- Plant response rating, Johnsongrass [12, 22]: 0
- Plant response rating, Soybean (soybean (Glycine max); [19]): 0
- Plant response rating, Soybean (soybean (Glycine max); [20]): 0
- Plant response rating (0 to 100), Soybean (soybean (Glycine max); [21]): 0
- Plant response rating, Soybean (soybean (Glycine max); [22]): 0
- Plant response rating, Nightshade (Nightshade; Rate 62 g/ha, scale 0 to 100): 0
- Plant response rating, Nightshade (Nightshade; [19]): 0
- Plant response rating, Nightshade (Nightshade; Rate 250 g/ha, scale 0 to 100, 0 no effect, 100 complete control): 0
- Plant response rating, Kochia (kochia (Kochia scoparia); [19]): 0
- Plant response rating, Kochia (kochia (Kochia scoparia); [20]): 0
- Plant response rating (0 to 100), Kochia (kochia (Kochia scoparia); [21]): 0
- Plant response rating, Kochia (kochia (Kochia scoparia); [22]): 0
- Plant response rating, Velvetleaf [13, 19]: 0
- Plant response rating, Velvetleaf [13, 20]: 0
- Plant response rating (0 to 100), Velvetleaf [13, 21]: 30
- Plant response rating, Velvetleaf [13, 22]: 10
- Plant response rating, Foxtail, Giant [14, 19]: 0
- Plant response rating, Foxtail, Giant [14, 20]: 0
- Plant response rating (0 to 100), Foxtail, Giant [14, 21]: 100
- Plant response rating, Foxtail, Giant [14, 22]: 100
- Plant response rating, Sunflower (Sunflower [15]): 0
- Barnyardgrass plant response rating ([16]; Rate 250 g/ha): 20
- Barnyardgrass plant response rating ([16]; Rate 500 g/ha): 50
- Plant response rating, Barnyardgrass ([16]; Rate 62 g/ha): 0
- Plant response rating, Barnyardgrass ([16]; Rate 125 g/ha): 0
- Ducksalad plant response rating ([17]; Rate 250 g/ha): 50
- Ducksalad plant response rating ([17]; Rate 500 g/ha): 80
- Plant response rating, Ducksalad ([17]; Rate 62 g/ha): 0
- Plant response rating, Ducksalad ([17]; Rate 125 g/ha): 0
- Flatsedge plant response rating ([18]; Rate 250 g/ha): 80
- Flatsedge plant response rating ([18]; Rate 500 g/ha): 90
- Plant response rating, Flatsedge ([18]; Rate 62 g/ha): 0
- Plant response rating, Flatsedge ([18]; Rate 125 g/ha): 0
